ChEMBL document CHEMBL1201862, “PubChem BioAssay data set” (2004)
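Values below derive from 48-hour exposures of cells grown in 96-well plates, with endpoints linearly interpolated between the two concentrations bracketing the appropriate inhibition level. Abbreviation: GI50, concentration required for 50% inhibition of growth.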 Active and inactive are the calls of the source. Cut-off read from the data, not from the text of the source: active = GI50 up to about 1.1 µM and inactive = higher.

Assays:
Test in all cases: DTP human tumour cell line panel, 48 h
COLO 205 = tested on: COLO 205
UACC-62 = tested on: UACC-62
EKVX = tested on: EKVX
HCC 2998 = tested on: HCC 2998
HCT-15 = tested on: HCT-15
MDA-MB-435 = tested on: MDA-MB-435
K562 = tested on: K562
HL-60 = tested on: HL-60
CAKI-1 = tested on: CAKI-1
KM12 = tested on: KM12
SN12C = tested on: SN12C
NCI-H226 = tested on: NCI-H226
A549 = tested on: A549
OVCAR-3 = tested on: OVCAR-3
A498 = tested on: A498
ACHN = tested on: ACHN
SR = tested on: SR
SNB-19 = tested on: SNB-19
MDA-N = tested on: MDA-N
UO-31 = tested on: UO-31
MOLT-4 = tested on: MOLT-4
HOP-62 = tested on: HOP-62
HCT-116 = tested on: HCT-116
RXF 393 = tested on: RXF 393
SF-295 = tested on: SF-295
CCRF-CEM = tested on: CCRF-CEM
OVCAR-5 = tested on: OVCAR-5
LOX IMVI = tested on: LOX IMVI
M14 = tested on: M14
MCF7 = tested on: MCF7
SW-620 = tested on: SW-620
U-251 = tested on: U-251
SK-MEL-28 = tested on: SK-MEL-28
IGROV-1 = tested on: IGROV-1
PC-3 = tested on: PC-3
DU-145 = tested on: DU-145
SK-MEL-5 = tested on: SK-MEL-5
NCI-H23 = tested on: NCI-H23
SK-OV-3 = tested on: SK-OV-3
NCI/ADR-RES = tested on: NCI/ADR-RES
786-0 = tested on: 786-0
SNB-75 = tested on: SNB-75
OVCAR-8 = tested on: OVCAR-8
RPMI-8226 = tested on: RPMI-8226
SK-MEL-2 = tested on: SK-MEL-2
UACC-257 = tested on: UACC-257
T47D = tested on: T47D
HOP-92 = tested on: HOP-92
TK-10 = tested on: TK-10
BT-549 = tested on: BT-549
OVCAR-4 = tested on: OVCAR-4
NCI-H460 = tested on: NCI-H460

Measured: GI50

CCNC12CCC(C1)C(C)(C)C2=O (configuration not stated)
inactive: COLO 205 > 100 µM | UACC-62 > 100 µM | EKVX > 100 µM | HCC 2998 > 100 µM | MDA-MB-435 > 100 µM | K562 > 100 µM | HL-60 > 100 µM | CAKI-1 > 100 µM | KM12 > 100 µM | SN12C > 100 µM | NCI-H226 > 100 µM | A549 > 100 µM | OVCAR-3 > 100 µM | A498 > 100 µM | ACHN > 100 µM | SR > 100 µM | SNB-19 > 100 µM | MDA-N > 100 µM | UO-31 > 100 µM | MOLT-4 > 100 µM | HOP-62 > 100 µM | HCT-116 > 100 µM | RXF 393 > 100 µM | SF-295 > 100 µM | CCRF-CEM > 100 µM | OVCAR-5 > 100 µM | LOX IMVI > 100 µM | M14 > 100 µM | MCF7 > 100 µM | SW-620 > 100 µM | U-251 > 100 µM | SK-MEL-28 > 100 µM | IGROV-1 > 100 µM | PC-3 > 100 µM | DU-145 > 100 µM | SK-MEL-5 > 100 µM | NCI-H23 > 100 µM | SK-OV-3 > 100 µM | NCI/ADR-RES > 100 µM | 786-0 > 100 µM | SNB-75 > 100 µM | OVCAR-8 > 100 µM | RPMI-8226 > 100 µM | SK-MEL-2 > 100 µM | UACC-257 > 100 µM | T47D > 100 µM | HOP-92 > 100 µM | TK-10 > 100 µM | BT-549 > 100 µM | OVCAR-4 > 100 µM | NCI-H460 > 100 µM
> 100 µM: HCT-15
